Data from patent US20250304700A1, “ANTI-BLOOD DENDRITIC CELL ANTIGEN 2 ANTIBODIES AND USES THEREOF” (Biogen MA Inc., priority 2012, published 2025).
Entries after “also recorded” stand apart in the source; their conditions may differ.

How the values were obtained:
[1] = tested on: IFNα production from SLE sera stimulated pDCs; experiment: IFNα production after stimulation with SLE sera; type: cell-based, human; conditions: sera from an SLE patient at final dilution 1/5
Method: The ability of anti-BDCA2 mAb to inhibit IFNα production following stimulation with a physiologically relevant ligand, namely, sera from patients with SLE was also tested. SLE sera are believed to induce type I IFN through complexes of anti-DNA autoantibodies and immunostimulatory hypomethylated DNA that stimulate TLR9. PBMCs were stimulated with sera from an SLE patient (provided by Dr. Gregg Silverman, NYU) and used at a final dilution of 1/5.

[2] = tested on: TLR9-induced IFNα production in whole blood; experiment: Pre-incubation (internalization) before TLR9 stimulation, IFNα in whole blood; type: cell-based, human; conditions: up to 9 hours pre-incubation, then 200 μg/mL CpG-A for 18 hours
Method: The following experiment was conducted to ascertain whether BIIB059-mediated receptor internalization affected IFN inhibition. […] At each time point after pre-incubation, cells were challenged with 200 μg/mL CpGA and incubated for an additional 18 hours at 37° C. Supernatants were collected for use in IFNα ELISA assays (PBL InterferonSource). The assays were performed according to the manufacturer's protocol. FIG. 19B is a representative experiment of 3 independent experiments performed. […] In addition, we have previously shown that bivalent binding was necessary for anti-BDCA2 mediated IFN inhibition.
At each time point after pre-incubation, cells were stimulated with 200 μg/mL TLR9 ligand (CpG-A) and incubated for an additional 18 hours at 37° C. Supernatants were collected for use in IFNα ELISA assays (PBL InterferonSource).

[3] = tested on: Sm/RNP immune complexes-induced cytokines by pDCs; experiment: Cytokines from Sm/RNP immune complex stimulated purified pDCs; type: cell-based, human; conditions: 10 μg/mL BIIB059, 18 hours
Method: Specifically, Sm/RNP immune complexes (IC) were pre-formed by mixing sm-RNP from calf thymus and anti-RNP antibodies purified form sera of SLE patients for 1 h in serum-free medium. pDCs from human healthy donors were isolated using a two-step magnetic bead separation procedure (MACS kit, Miltenyi Biotec). […] The plates containing pDCs were incubated for 18 hours at 37° C. and supernatants collected for use in ELISA or multiplex assays to measure concentrations of inflammatory cytokines and chemokines.

[4] = tested on: CD32a on the surface of pDCs; experiment: CD32 surface expression on isolated pDCs; type: cell-based, human
Excerpt: Treatment with effector competent isotype control had no effect on CD32 surface levels (FIG. 46).
CD40 is a cell surface protein expressed on pDCs. An anti-CD40 antibody with a fully functional Fc has the ability to engage CD40 and bind CD32 on the surface of pDCs.

[5] = tested on: TLR9-induced IFNα production; experiment: Ex vivo whole blood assay (MxA bioassay) after in vivo dosing; design: species or system cynomolgus monkey
Method: FIG. 58 is a schematic representation of the Cynomolgus Monkey PK/PD Experimental Design. Nine Cynomolgus monkeys completed the intravenous (IV) dose study. […] At each bleeding time point, a whole blood assay was performed where whole blood from the cynomolgus monkeys was diluted 1:4 with complete RPMI 1640 and stimulated with CPG-A to a final concentration of 200 μg/ml in a 96 well round bottom tissue culture plate and incubated at 37° C. 5% CO2 for 18-20 hours. At the end of the culture, the stimulated whole blood was centrifuged to harvest serum. In the MxA bioassay, A549 cells were stimulated with the harvested serum for 19-20 hours at 37° C. 5% CO2 to induce MxA protein. After 20 hours, A549 cells were lysed and a sandwich ELISA was performed to detect concentrations of MxA protein. IFNα levels (units/mL) were back calculated from a standard curve generated by treating A549 cells with increasing doses of rIFNa.
Intravenous and subcutaneous dosing routes were evaluated for their ability to impact IFNα induction, which was measured using the MxA bioassay according to the experimental plan outlined in FIG. 58. TLR9 ligand (CpG-A) induced measurable quantities of IFNα in whole blood cultures across all time points and in all cynomolgus monkeys, while no IFNα was detected in the control PBS-treated cultures (data not shown).
A more comprehensive analysis of the data was performed using two-way mixed effects analysis of variance (ANOVA) to estimate the mean IFNα and the post versus pre differences for each dose group in the IV-study. Data during the first 24 hours following dosing were excluded due to an observed decrease in peripheral blood plasmacytoid dendritic cell percentages. Data for bleeds after day 31 post-dose were excluded from the analysis due to the return of BDCA2 expression observed at this time. For the vehicle dosed group, the geometric mean IFNα was 362 Units/mL (U/mL) pre-dose, and 314 U/mL post-dose; for the 1 mg/kg dosed group, the geometric mean was 399 U/mL pre-dose, and 237 U/mL post-dose; for the 10 mg/kg group, the geometric mean IFNα was 211 U/mL pre-dose, and 102 U/mL post-dose (FIG. 4). The post-pre differences in mean log 10 IFNα were-0.061 (p=0.511) for the Vehicle group, −0.226 (p=0.016) for the 1 mg/kg group, and −0.317 (p=0.004) for the 10 mg/kg group.
For the subcutaneously-dosed cynomolgus monkey cohort, a one-way analysis of variance (ANOVA) with random effects was used to estimate the mean IFNα and the post versus pre differences for the entire group. Data during the first 24 hours following dosing were excluded due to an observed decrease in peripheral blood plasmacytoid dendritic cell percentages. Data for bleeds after day 33 post-dose were excluded from the analysis due to the recovery of BDCA2 expression observed at this time. For the subcutaneously dosed group, the geometric mean IFNα was 1243 U/mL pre-dose and 812 U/mL post-dose, yielding a post/pre ratio of 65%. The post-pre difference in mean log 10 was estimated to be −0.185 (p=0.059) which, after anti-log 10 transformation, corresponds to 10^(−0.185)=65% of the pre-dose geometric mean; the 95% CI of this effect is 41%-102% (FIG. 61).

[6] = tested on: type I IFN subtype transcription in pDCs; experiment: qPCR of type I IFN subtypes in Sm/RNP IC stimulated pDCs; type: cell-based, human; conditions: 10 μg/mL BIIB059, 16 hours
Method: Sm/RNP immune complexes (IC) were pre-formed by mixing sm-RNP from calf thymus and anti-RNP antibodies purified from sera of SLE patients for 30 minutes in serum-free medium. pDCs from human healthy donors were isolated using a two-step magnetic bead separation procedure (MACS kit, Miltenyi Biotec). […] The plates containing pDC were incubated for 16 hours at 37° C. and 5% CO2. pDC cells were collected and RNA from pDC was isolated for evaluation in qPCR reaction.

Substance	IFNα production [1]	effect of pre-incubation on IFNα inhibition [2]	Sm/RNP immune complexes-induced IFNα, TNFα and IL-6 [3]	chemokines induced by Sm/RNP immune complexes (CCL3, CCL4) [3]	CD32 MFI ([4]; 10 μg/mL, 1 hour at 4° C.)	CD32 on the cell surface of pDCs ([4]; 16 hours at 37° C.)	IFNα post-dose, of the pre-dose geometric mean ([5]; 0.2 mg/kg SC) [%]	post-pre difference in mean log 10 IFNα ([5]; 0.2 mg/kg SC)	geometric mean IFNα post-dose ([5]; 0.2 mg/kg SC, up to day 33) [U/mL]	IFN concentration post-dose compared to pre-dose ([5]; 1 mg/kg IV) [%]	post-pre difference in mean log 10 IFNα ([5]; 1 mg/kg IV)	geometric mean IFNα post-dose ([5]; 1 mg/kg IV, up to day 31) [U/mL]	IFN concentration post-dose compared to pre-dose ([5]; 10 mg/kg IV) [%]	geometric mean IFNα post-dose ([5]; 10 mg/kg IV) [U/mL]	post-pre difference in mean log 10 IFNα ([5]; 10 mg/kg IV)	TLR9-induced IFN production ex vivo, in words ([5]; dosed in vivo, IV and SC)	transcript level of type I IFN subtypes [6]
24F4S: hu24F4 H4/L1 with C95S light chain; differs from BIIB059 by 1 amino acid residue	completely abrogated																
BIIB059: humanized IgG1 anti-BDCA2 antibody, mature heavy chain SEQ ID NO: 4 and mature light chain SEQ ID NO: 3		did not affect IFN inhibition; also recorded: did not alter the ability of BIIB059 to inhibit	potently inhibited	also inhibited	did not decrease the CD32 MFI	able to induce the down-modulation of CD32	65	−0.185	812	59	−0.226	237	48	102	−0.317	trend towards inhibited TLR9-induced IFN production	inhibited the transcript level of all type I IFN subtypes tested
